Positions count from the first letter of the chain named.
Assays:
CMV protease [1] = biological target: T1, CMV protease (Human cytomegalovirus, UniProt P16753); test: yeast growth selection assay: RLY07 cells co-expressing Trp1(194)-M substrate and CMV protease; assay type: cell-based; design: The CMV protease gene encoding amino acids 1-256 of the 75 kDa precursor was obtained by PCR from CMV infected MRC5 human cells; expressed in transfected cells; host or cells: Saccharomyces cerevisiae RLY07 (pdr5Δ snq2Δ yor1Δ); Protease on CEN4-ARS1 plasmid pMH51 under the GAL1 promoter; settings: for effect of increasing concentrations on cell proliferation: concentration series, active protease, ~2 days at 30° C., 96-well plates
Protocol: (§1) RLY07 cells transformed with the different TRP1-M constructs and a plasmid encoding the CMV protease or the empty vector were inoculated in 3 ml of 2% galactose -ura -leu medium and grown at 30° C. to OD600 1. They were washed with 5 ml H2O and resuspended in 2% galactose -ura -leu -trp medium supplemented with 10% glycerol (=growth selection medium, glycerol promotes CMV protease dimerisation and subsequent proteolytic activity) and diluted to a start OD600 0.01. For the experiments with the coxackievirus 3C protease, preculture medium was 2% glucose -ura -leu, assay medium was 2% glucose -ura -leu trp, and inoculation OD600 0.001. At time zero, assay cultures at the aforesaid start OD600 were distributed in 96-well microtiter plates, with a volume of 150 μl per well, and incubated without shaking at 30° C. At the time points indicated in the “results” section, plates were shaken to resuspend cells before being submitted to light scattering measurement at 595 nm in a Tecan Genios reader for determining cell density.
CMV protease inhibitors BI31 and BI36 (Boeringher Ingelheim, Quebec) were dissolved in DMSO and added to the assay cultures at time zero of the growth assay. Final DMSO concentration was 1%.
RLY07 cells co-expressing Trp1^194-M substrate and the CMV protease were incubated with a concentration series of BI31 and BI36 in 96-well microtiter plates and cultivated under selective conditions. […] Importantly, despite this toxicity BI31 still stimulates growth of cells expressing the active protease (triangles). For example, at 50 μM cell density is multiplied by a factor 4 despite 25% toxicity.

RLY07 cells = test: growth of RLY07 cells expressing the inactive, point-mutated CMV protease (toxicity control); assay type: cell-based, S. cerevisiae
Protocol: as §1
CMV protease inhibitors BI31 and BI36 (Boeringher Ingelheim, Quebec) were dissolved in DMSO and added to the assay cultures at time zero of the growth assay. Final DMSO concentration was 1%. […]

CMV protease [2] = biological target: T1, CMV protease; test: Western blot of Trp1(194)-M substrate cleavage by CMV protease in yeast; assay type: cell-based; design: The CMV protease gene encoding amino acids 1-256 of the 75 kDa precursor was obtained by PCR from CMV infected MRC5 human cells; expressed in transfected cells; host or cells: Saccharomyces cerevisiae RLY07; Protease on plasmid pMH51 under the GAL1 promoter
Protocol: Yeast whole cell extracts were prepared as described by Burke et al. (Burke, Dawson et al. 2000). Proteins were separated by SDS-PAGE and Western blot analysis was performed according to standard procedures (Ausubel et al., 2003, Current Protocols in Molecular Biology). An HA-monoclonal antibody from Sigma (clone 3F10) was used at a concentration of 30 ng/ml to detect expression of TRP1(194)-M.
The Western blot was performed to provide biochemical evidence for inhibition of cleavage of CMV protease by compound BI36 (FIG. 5B). […] As in the Western blot on FIG. 3C, unfortunately no cleavage products could be detected.

[3] = biological target: Trp1-2C/3A substrate: yeast Trp1p with the 13 amino acid coxsackievirus B3 2C/3A cleavage sequence inserted after Gly194 (Saccharomyces cerevisiae; coxsackievirus B3) (UniProt P00912); test: cell-based or functional assay
[4] = biological target: Trp1(194)-M (long): yeast Trp1p with the 39 amino acid CMV M-site cleavage sequence inserted after Gly194 (Saccharomyces cerevisiae; human cytomegalovirus) (UniProt P00912); test: cell-based or functional assay
[5] = biological target: Trp1(194)-M (short): yeast Trp1p with the 13 amino acid CMV M-site cleavage sequence inserted after Gly194 (Saccharomyces cerevisiae; human cytomegalovirus) (UniProt P00912); test: cell-based or functional assay
[6] = biological target: point-mutated Trp1(194)-M (A→E) substrate with HA tags, as blotted, P00912
[7] = biological target: T2, Trp1(194)-M with HA tags at both the N-terminus and the C-terminus, P00912
T2 chain: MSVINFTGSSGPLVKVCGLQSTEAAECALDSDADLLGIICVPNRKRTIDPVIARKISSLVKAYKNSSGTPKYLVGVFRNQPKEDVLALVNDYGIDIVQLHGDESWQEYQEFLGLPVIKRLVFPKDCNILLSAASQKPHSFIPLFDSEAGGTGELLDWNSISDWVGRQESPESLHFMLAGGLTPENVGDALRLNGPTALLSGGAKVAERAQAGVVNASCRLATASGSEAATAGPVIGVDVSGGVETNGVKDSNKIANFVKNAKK

For `CN(Cc1ccc(C(F)(F)F)cc1)C(=O)N1C(=O)C[C@@H]1CSc1ncccn1` [BI31], the “factor by which cell density is multiplied” value (CMV protease [1]; 50 μM, cells expressing the active protease) was 4, the “effect of increasing concentrations on cell proliferation” value (CMV protease [1]) was “dose-dependent increase of cell proliferation” and the toxicity (RLY07 cells; 50 μM) was 25%. For the same molecule, the “toxic effect on cells (decrease of cell proliferation)” value (RLY07 cells; increasing concentrations, cells expressing inactive protease) was “dose-dependent toxic effect”.

For `CN(Cc1ccc([N+](=O)[O-])cc1)C(=O)N1C(=O)C[C@@H]1CSc1nnnn1C` [BI36], the EC50 (CMV protease [1]) was 31 µM, the “CMV protease inhibition judged from OD600 versus cells expressing inactive protease” value (CMV protease [1]; 100 μM) was “almost completely inhibited” and the “effect of increasing concentrations on cell proliferation” value (CMV protease [1]) was “dose-dependent increase of cell proliferation”. The “inhibition of proteolysis (Western blot)” value (CMV protease [2]; 10 μM) was “only slightly inhibited”, the “inhibition of cleavage (Western blot)” value (CMV protease [2]; 100 μM) was “inhibits the cleavage almost completely” and the “inhibition of substrate cleavage (Western blot)” value (CMV protease [2]; concentration series 100 μM, 30 μM, 10 μM) was “prevented substrate cleavage in a dose-dependent manner”.

“cysteine protease 3C from coxsackievirus B3 (from UniProt P03313 1541-1723) (enzyme)” showed a cell growth in selective medium lacking tryptophan after 27 h at 30° C., against cells expressing only the substrate [3] of 60%.

In the case of “human cytomegalovirus (CMV) protease, amino acids 1-256 of the 75 kDa precursor (from UniProt P16753 1-256) (enzyme)”, the proliferation reduction in medium lacking tryptophan for 38 h [4] is reported as 85%, the OD600 of co-expressing RLY07 cells in liquid selective medium after 36 hours, against control cells with an empty plasmid instead of the protease plasmid [5] is reported as 35% and the proliferation reduction in medium lacking tryptophan for 38 h (FIG. 3B, lanes 1, 2) [5] is reported as 35%.

B1: human cytomegalovirus (CMV) protease, amino acids 1-256 of the 75 kDa precursor (protein)
chain: MTMDEQQSQAVAPVYVGGFLARYDQSPDEAELLLPRDVVEHWLHAQGQGQPSLSVALPLNINHDDTAVVGHVAAMQSVRDGLFCLGCVTSPRFLEIVRRASEKSELVSRGPVSPLQPDKVVEFLSGSYAGLSLSSRRCDDVEAATSLSGSETTPFKHVALCSVGRRRGTLAVYGRDPEWVTQRFPDLTAADRDGLRAQWQRCGSTAVDASGDPFRSDSYGLLGNSVDALYIRERLPKLRYDKQLVGVTERESYVKA
For B1, the “anti-HA Western blot of yeast extracts, full-length substrate band (FIG. 3C, lane 4)” value [6] was “active protease has no effect on the point-mutated Trp1(194)-M (A→E) substrate, as the band is also present”, the “anti-HA Western blot of yeast extracts, full-length 33 kDa substrate band (FIG. 3C, lane 2)” value [7] was “Co-expression of active CMV protease (lane 2) causes disappearance of the full-length substrate” and the “anti-HA Western blot, 33 kDa band (FIG. 5B, lane 2)” value [7] was “co-expressing the active protease instead of the inactive version causes disappearance of the 33 kDa band”.

B2: inactive version of the CMV protease harbouring the S(132) A mutation at the catalytic site (protein)
chain: B1 chain with S132A
B2 was tested, and the “anti-HA Western blot of yeast extracts, full-length 33 kDa substrate band (FIG. 3C, lane 3)” value [7] was “the inactive CMV protease does not cleave the Trp1(194)-M substrate (since the full-length substrate band does not disappear)” and the “anti-HA Western blot, 33 kDa band (FIG. 5B, lane 1)” value [7] was “A 33 kDa band corresponds to the full-length Trp1(194)-M substrate upon co-expression with inactive CMV protease”.
